According to patent US20020192194A1, “Production and use of dopaminergic cells to treat dopaminergic deficiencies” (priority 2000, published 2002):

What was measured:
hNT neurons [1] = assay: Soma size and neurite outgrowth of TH+ hNT cells (image analysis); type: cell-based, human; conditions: 5 days in culture
Protocol: The same series of slides immunostained for TH were employed to measure the soma size (μm^2) and neurite outgrowth (μm) of appropriately 50 TH+ cells per representative culture experiment using a computerized image analysis program (Image-Pro Plus, Media Cybernetics, Inc., Silver Springs, Md.) at 20X objective. The results in the morphological assessment study are reported as mean ±SEM and were analyzed using Student's t-test.

hNT neurons [2] = assay: TH expression of hNT neurons treated with lithium chloride (TH immunoreactivity counts); type: cell-based, human; conditions: 1.0 mM, 5-day cultures
Protocol: A small-scale dose range study analyzed whether therapeutic (0.5-1.0 mM) and clinically toxic (2.0-6.0 mM) concentrations of LiCl enhanced TH expression in cells treated for 6 weeks with retinoic acid and then LiCl. The control and lithium-treated cultures (0.5, 1.0 and 3.0 mM) were scored for TH immunoreactivity, which was expressed as the number of TH-positive (TH+) cells/well. For TH immunohistochemistry the cells were rinsed in 0.1 M phosphate buffered saline (PBS), fixed in 4% paraformaldehyde, and then again rinsed in PBS. […] To determine the percentage of cells labeled by a particular antibody in representative experiments, the numbers of labeled and unlabeled cells were assessed in a blind-coded manner using a 20X objective and a photographic frame. […]
To investigate the effect of various doses of LiCl on tyrosine hydroxylase expression in 5 DIV hNT neurons, we determined the number of unlabeled and TH+ neurons in a blind coded manner using a 20X objective and a photographic frame (field=0.3 mm^2). […] The dose responsive tests were analyzed using a one-way analysis of variance (ANOVA) followed by post hoc comparisons using Bonferroni-Dunn analysis.

SMILES	neurite outgrowth vs control (hNT neurons [1])	soma size vs control (hNT neurons [1])	numbers of TH+ hNT cells vs control (hNT neurons [2])
[Cl-].[K+] [KCl]	did not significantly differ from control values	not significantly different from control	not significantly different
[Cl-].[Na+] [NaCl]	did not significantly differ from control values	not significantly different from control	not significantly different
